Our source for the Ki values is patent publication EP2065386A1, “CGRP antagonists” (Boehringer Ingelheim Pharma GmbH & Co. KG, priority 2007, dated 2009).

By Ki is commonly meant the dissociation constant of the complex between target and ligand, obtained from inhibition or displacement. Low values mean tighter binding, high ones weaker binding.

In the experiment the target is T1, humanen CGRP-Rezeptor (Homo sapiens, UniProt O60894+Q16602).
T1 construct: endogenous in cells; host or cells: SK-N-MC cells (membrane homogenate)
Nature of the experiment: Binding studies with SK-N-MC cell membranes, displacement of 125I-Iodotyrosyl-CGRP. Conditions: SK-N-MC membrane homogenate, 50 pM 125I-Iodotyrosyl-CGRP, 180 min, room temperature. The text has this: Zum Nachweis der Affinität der voranstehend genannten Verbindungen zu humanen CGRP-Rezeptoren und ihrer antagonistischen Eigenschaften wurden die folgenden Versuche durchgeführt: • A. Bindungsstudien mit (den humanen CGRP-Rezeptor exprimierenden) SK-N-MC-Zellen SK-N-MC-Zellen werden in "Dulbecco's modified Eagle Medium" kultiviert. Das Medium konfluenter Kulturen wird entfernt. Die Zellen werden zweimal mit PBS-Puffer (Gibco 041-04190 M) gewaschen, durch Zugabe von PBS-Puffer, versetzt mit 0.02% EDTA, abgelöst und durch Zentrifugation isoliert. Nach Resuspension in 20 ml "Balanced Salts Solution" [BSS (in mM): NaCl 120, KCl 5.4, NaHCO3 16.2, MgSO4 0.8, NaHPO4 1.0, CaCl2 1.8, D-Glucose 5.5, HEPES 30, pH 7.40] werden die Zellen zweimal bei 100 x g zentrifugiert und in BSS resuspendiert. Nach Bestimmung der Zellzahl werden die Zellen mit Hilfe eines Ultra-Turrax homogenisiert und für 10 Minuten bei 3000 x g zentrifugiert. Der Überstand wird verworfen und das Pellet in Tris-Puffer (10 mM Tris, 50 mM NaCl, 5 mM MgCl2, 1 mM EDTA, pH 7.40), angereichert mit 1% Rinderserum-Albumin und 0.1% Bacitracin, rezentrifugiert und resuspendiert (1 ml / 1000000 Zellen). Das Homogenat wird bei -80°C eingefroren. Die Membranpräparationen sind bei diesen Bedingungen für mehr als 6 Wochen stabil. Nach Auftauen wird das Homogenat 1:10 mit Assay-Puffer (50 mM Tris, 150 mM NaCl, 5 mM MgCl2, 1 mM EDTA, pH 7.40) verdünnt und 30 Sekunden lang mit einem Ultra-Turrax homogenisiert. 230 µl des Homogenats werden für 180 Minuten bei Raumtemperatur mit 50 pM ^125I-Iodotyrosyl-Calcitonin-Gene-Related Peptide (Amersham) und ansteigenden Konzentrationen der Testsubstanzen in einem Gesamtvolumen von 250 µl inkubiert. Die Inkubation wird durch rasche Filtration durch mit Polyethylenimin (0.1%) behandelte GF/B-Glasfaserfilter mittels eines Zellharvesters beendet. Die an Protein gebundene Radioaktivität wird mit Hilfe eines Gammacounters bestimmt. Als nichtspezifische Bindung wird die gebundene Radioaktivität nach Gegenwart von 1 µM humanem CGRP-alpha während der Inkubation definiert. […]

T1 sequence (Q16602 23-461): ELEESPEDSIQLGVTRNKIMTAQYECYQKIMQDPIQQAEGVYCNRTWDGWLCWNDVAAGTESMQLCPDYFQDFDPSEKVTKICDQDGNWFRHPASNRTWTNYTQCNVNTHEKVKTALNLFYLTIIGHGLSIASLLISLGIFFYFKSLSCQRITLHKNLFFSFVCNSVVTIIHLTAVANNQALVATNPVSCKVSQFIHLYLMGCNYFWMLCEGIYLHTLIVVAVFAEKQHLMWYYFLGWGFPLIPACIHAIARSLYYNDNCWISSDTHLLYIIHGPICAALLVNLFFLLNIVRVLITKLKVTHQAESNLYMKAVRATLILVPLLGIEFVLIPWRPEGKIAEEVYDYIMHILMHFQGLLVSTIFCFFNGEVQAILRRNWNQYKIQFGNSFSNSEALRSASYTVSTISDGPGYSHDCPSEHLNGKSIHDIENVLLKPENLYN
T1 sequence (O60894 27-148): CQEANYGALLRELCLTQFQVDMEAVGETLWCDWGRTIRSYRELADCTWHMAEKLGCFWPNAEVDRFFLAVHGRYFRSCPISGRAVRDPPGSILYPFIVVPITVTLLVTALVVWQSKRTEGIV

In turn, `Cn1cc(C(=O)c2cc(N3CCC4(CC3)NC(=O)Nc3ccccc34)ncn2)c2ccccc21` [(1), 1-(6-(1-Methyl-1H-indol-3-carbonyl)pyrimidin-4-yl)-1'H-spiro[piperidin-4,4'-chinazolin]-2'(3'H)-on] returned a Ki of 81 nM. This counts as double-digit nanomolar.
The value for `Cn1cc(C(=O)c2cc(Nc3ccc4c(c3)CC3(C4)C(=O)Nc4ncccc43)ncn2)c2ccccc21` (stereo not drawn) [(2), 5-(6-(1-Methyl-1H-indol-3-carbonyl)pyrimidin-4-ylamino)-1,3-dihydrospiro[inden-2,3'-pyrrolo[2,3-b]pyridin]-2'(1'H)-on] was 89 nM; that for `Cn1cc(C(=O)c2cc(N3CCC4(CC3)OC(=O)Nc3ccccc34)ncn2)c2ccccc21` [(3), 1'-(6-(1-Methyl-1H-indol-3-carbonyl)pyrimidin-4-yl)spiro[benzo[d][1,3]oxazin-4,4'-piperidin]-2(1H)-on] was 204 nM.
